From ChEMBL document CHEMBL3046378, “3-(6-Chloronicotinyl)-2-nitromethylene-thiazolidine as a New Class of Insecticide Acting against Lepidoptera Species” (1992) come the findings set out here.

Active and inactive are the calls of the source. The calls are words filed in the database; no cut-off is given here.

The test system of one assay is Cnaphalocrocis medinalis. Briefly: Insecticidal activity against Cnaphalocrocis medinalis measured 5 days after artificial infestation. The class given is functional.
A further assay deals with Plutella xylostella. Briefly: Insecticidal activity against Plutella xylostella (diamondback moth) measured 5 days after artificial infestation. The class given is functional.
The subject of a further assay is Nephotettix cincticeps. Description: Insecticidal activity against Nephotettix cincticeps (green rice leafhopper) measured 5 days after artificial infestation. The class given is functional.
The test system of assay [1] is Spodoptera litura. Description: Insecticidal activity against Spodoptera litura measured 5 days after artificial infestation. The class given is functional.
In assay [2] the test system is Spodoptera litura. Description: Insecticidal activity against Spodoptera litura at 1000 ppm measured 5 days after artificial infestation. The class given is functional, organism-based.

In the case of `O=[N+]([O-])/C=C1\NCCN1Cc1ccc(Cl)nc1`, the LC90 in the assay with Cnaphalocrocis medinalis was found to be 200 ppm; with Plutella xylostella it was 40 ppm; in the assay on Nephotettix cincticeps, 0.32 ppm; in the assay with Spodoptera litura [1], 8 ppm.

As for `O=[N+]([O-])/N=C1\SCCN1Cc1ccc(Cl)nc1`, the figures for the LC90 with Nephotettix cincticeps and in the assay on Spodoptera litura [1] were 1.6 ppm and 200 ppm, respectively.

In the case of `O=[N+]([O-])/C=C1\SCCN1Cc1ccc(Cl)nc1`, the LC90 in the assay on Cnaphalocrocis medinalis is 8 ppm; with Plutella xylostella, 1.6 ppm; in the assay with Nephotettix cincticeps, 0.32 ppm; in the assay with Spodoptera litura [1], 1.6 ppm.

Consider `O=[N+]([O-])/C=C1\NCCS1` [2-(NITROMETHYLENE)THIAZOLIDINE], for which the outcome in the assay on Spodoptera litura [2] was inactive. In the assay with Nephotettix cincticeps, this compound came in with an LC90 of 1000 ppm.

As for `O=[N+]([O-])/N=C1\NCCN1Cc1ccc(Cl)nc1` [IMIDACLOPRID], the LC90 with Cnaphalocrocis medinalis is 200 ppm; in the assay with Plutella xylostella it was 200 ppm; with Nephotettix cincticeps it was 0.32 ppm; with Spodoptera litura [1], 40 ppm.

On to `O=[N+]([O-])C=C1NCCCS1`, for which the LC90 in the assay on Cnaphalocrocis medinalis was 200 ppm; in the assay with Plutella xylostella it was 1000 ppm; in the assay on Nephotettix cincticeps, 8 ppm; in the assay on Spodoptera litura [1], 40 ppm.

On to `O=[N+]([O-])/N=c1\sccn1Cc1ccc(Cl)nc1`, for which the LC90 with Nephotettix cincticeps worked out at 0.32 ppm; with Spodoptera litura [1], 1000 ppm.

Take `O=[N+]([O-])/C=C1\OCCN1Cc1ccc(Cl)nc1`: the figures for the LC90 in the assay on Nephotettix cincticeps and with Spodoptera litura [1] were 8 ppm and 1000 ppm, respectively.

For `O=[N+]([O-])/C=C1\CCCN1Cc1ccc(Cl)nc1`, the LC90 in the assay on Nephotettix cincticeps turned out to be 1.6 ppm; in the assay on Spodoptera litura [1] it was 200 ppm.
